According to patent US4604401A, “Antibacterial agents III” (Warner-Lambert Company, priority 1984, dated 1986):
≈ marks a conversion by molar mass, not a printed value. Like-named read-outs stand apart in the source and are kept apart here.

What was measured:
Test in all cases: In vitro antibacterial activity, microtitration dilution method (MIC)
Assay type in all cases: cell-based
[1] = tested on: Staphylococcus aureus UC-76
Excerpt: (§1) Agents & Chemoth., 6, 124 (1974), which is incorporated herein by reference.

[2] = tested on: Staphylococcus aureus H 228
Excerpt: as §1

[3] = tested on: Streptococcus faecalis MGH-2; details: Enterococcus faecalis
Excerpt: as §1

[4] = tested on: Klebsiella pneumoniae MGH-2; details: MGH2, read-out: Minimal Inhibitory Concentration (MIC)
Excerpt: (§2) The compounds of the invention display antibacterial activity when tested by the microtitration dilution method as described in Heifetz, et al, Antimicr. Agents & Chemoth., 6, 124 (1974), which is incorporated herein by reference.
(§3) By use of the above referenced method, the followed minimum inhibitory concentration values (MICs in μg/ml) were obtained for representative compounds of the invention.

[5] = tested on: Streptococcus pneumoniae SV-1; details: SV1, read-out: Minimal Inhibitory Concentration (MIC)
Excerpt: as §2, §3

[6] = tested on: Enterobacter cloacae MA 2646; details: MA2646, read-out: Minimal Inhibitory Concentration (MIC)
Excerpt: as §2, §3

[7] = tested on: Pseudomonas aeruginosa UI-18; details: UI18, read-out: Minimal Inhibitory Concentration (MIC)
Excerpt: as §2, §3

Proteus rettgeri M 1771 = details: Providencia rettgeri, M1771, read-out: Minimal Inhibitory Concentration (MIC)
Excerpt: as §2, §3

[8] = tested on: Streptococcus pyogenes C-203; details: C203, read-out: Minimal Inhibitory Concentration (MIC)
Excerpt: as §2, §3

Escherichia coli Vogel = details: read-out: Minimal Inhibitory Concentration (MIC)
Excerpt: as §2, §3

[9] = Staphylococcus aureus, UC76, read-out: Minimal Inhibitory Concentration (MIC)
[10] = H228, Staphylococcus aureus H 228, read-out: Minimal Inhibitory Concentration (MIC)
[11] = MGH2, Streptococcus faecalis MGH-2, read-out: Minimal Inhibitory Concentration (MIC)

Compound	MIC [1, 9] [µg/mL]	MIC [2, 10] [µg/mL]	MIC [3, 11] [µg/mL]	MIC [4] [µg/mL]	MIC [5] [µg/mL]	MIC [6] [µg/mL]	MIC [7] [µg/mL]	MIC (Proteus rettgeri M 1771) [µg/mL]	MIC [8] [µg/mL]	MIC (Escherichia coli Vogel) [µg/mL]	MIC ([1]; UC76, Staphylococcus aureus UC-76, read-out: Minimal Inhibitory Concentration (MIC)) [µg/mL]	MIC ([2]; Staphylococcus aureus, H228, read-out: Minimal Inhibitory Concentration (MIC)) [µg/mL]	MIC ([3]; MGH2, read-out: Minimal Inhibitory Concentration (MIC)) [µg/mL]
CCNCC1CCN(c2cc3c(cc2F)c(=O)c(C(=O)O)cn3NC)C1 (stereo not shown) [Ex. 1, 7-[3-[(Ethylamino)methyl]-1-pyrrolidinyl]-6-fluoro-1-methylamino-1,4-dihydro-4-oxo-3-quinolinecarboxylic Acid]	0.2 (≈ 0.552 µM)	12.5 (≈ 34.5 µM)	6.3 (≈ 17.4 µM)	6.3 (≈ 17.4 µM)	3.1 (≈ 8.55 µM)	6.3 (≈ 17.4 µM)	25 (≈ 69 µM)	25 (≈ 69 µM)	0.4 (≈ 1.1 µM)	12.5 (≈ 34.5 µM)	–	–	–
CCNCC1CCN(c2c(F)cc3c(=O)c(C(=O)O)cn(NC)c3c2F)C1 (stereo not shown) [Ex. 3, 7-[3-[(Ethylamino)methyl]-1-pyrrolidinyl]-6,8-difluoro-1,4-dihydro-1-methylamino-4-oxo-3-quinolinecarboxylic acid]	0.2 (≈ 0.526 µM)	0.4 (≈ 1.05 µM)	0.4 (≈ 1.05 µM)	0.2 (≈ 0.526 µM)	0.1 (≈ 0.263 µM)	0.2 (≈ 0.526 µM)	0.8 (≈ 2.1 µM)	1.6 (≈ 4.21 µM)	0.2 (≈ 0.526 µM)	0.2 (≈ 0.526 µM)	–	–	–
CNn1cc(C(=O)O)c(=O)c2cc(F)c(N3CCC(N)C3)c(F)c21 (stereo not shown) [Ex. 2, 7-(3-Amino-1-pyrrolidinyl)-6,8-difluoro-1,4-dihydro-1-methylamino-4-oxo-3-quinolinecarboxylic Acid]	–	–	12.5 (≈ 36.9 µM)	0.2 (≈ 0.591 µM)	6.3 (≈ 18.6 µM)	0.8 (≈ 2.36 µM)	0.2 (≈ 0.591 µM)	0.4 (≈ 1.18 µM)	0.8 (≈ 2.36 µM)	0.2 (≈ 0.591 µM)	0.4 (≈ 1.18 µM)	3.1 (≈ 9.16 µM)	–
CNn1cc(C(=O)O)c(=O)c2cc(F)c(N3CCC(CN)C3)c(F)c21 (stereo not shown) [Ex. 4, 7-[3-(Aminomethyl)-1-pyrrolidinyl]-6,8-difluoro-1,4-dihydro-1-methylamino-4-oxo-3-quinolinecarboxylic acid]	0.2 (≈ 0.568 µM)	1.6 (≈ 4.54 µM)	–	1.6 (≈ 4.54 µM)	0.8 (≈ 2.27 µM)	1.6 (≈ 4.54 µM)	1.6 (≈ 4.54 µM)	1.6 (≈ 4.54 µM)	0.2 (≈ 0.568 µM)	1.6 (≈ 4.54 µM)	–	–	0.8 (≈ 2.27 µM)
